In US9695155B2, “Herbicidal substituted pyrimidinyloxy benzene compounds” (E. I. DU PONT DE NEMOURS AND COMPANY, priority 2013, dated 2017):

How the values were obtained:
bluegrass = experiment: Test D preemergence; format: in vivo, Poa annua
Source text: (§1) Seeds of plant species selected from bluegrass (annual bluegrass, Poa annua), blackgrass (Alopecurus myosuroides), canarygrass (littleseed canarygrass, Phalaris minor), chickweed (common chickweed, Stellaria media), galium (catchweed bedstraw, Galium aparine), bromegrass, downy (downy bromegrass, Bromus tectorum), field poppy (Papaver rhoeas), field violet (Viola arvensis), green foxtail (Setaria viridis), deadnettle (henbit deadnettle, Lamium amplexicaule), Italian ryegrass (Lolium multiflorum), kochia (Kochia scoparia), lambsquarters (Chenopodium album), oilseed rape (Brassica napus), pigweed (Amaranthus retroflexus), chamomile (scentless chamomile, Matricaria inodora), Russian thistle (Salsola kali), speedwell (bird's-eye speedwell, Veronica persica), spring barley (Hordeum vulgare), spring wheat (Triticum aestivum), wild buckwheat (Polygonum convolvulus), wild mustard (Sinapis arvensis), wild oat (Avena fatua), wild radish (Raphanus raphanistrum), windgrass (Apera spica-venti), winter barley (Hordeum vulgare), and winter wheat (Triticum aestivum) were planted into a silt loam soil and treated preemergence with test chemicals formulated in a non-phytotoxic solvent mixture which included a surfactant.
(§2) At the same time, these species were planted in pots containing Redi-Earth® planting medium (Scotts Company, 14111 Scottslawn Road, Marysville, Ohio 43041) comprising spaghnum peat moss, vermiculite, wetting agent and starter nutrients and treated with postemergence applications of the test chemicals formulated in the same manner. Plants ranged in height from 2 to 18 cm (1- to 4-leaf stage). Treated plants and controls were maintained in a controlled growth environment for 7 to 21 days after which time all species were compared to controls and visually evaluated. Plant response ratings, summarized in Table D, are based on a scale of 0 to 100 where 0 is no effect and 100 is complete control. A dash (-) response means no test result.

Russian thistle [1] = experiment: Test D postemergence; format: in vivo, Salsola kali
Source text: as §1, §2

pigweed = experiment: Test D postemergence; format: in vivo, Amaranthus retroflexus
Source text: as §1, §2

Russian thistle [2] = experiment: Test D preemergence; format: in vivo, Salsola kali; parameters: key: 0 = no effect, 100 = complete control
Outline: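 Solvent/surfactant formulations are sprayed pre (silt loam) or post (1–4 leaf plants, 2–18 cm). Plants stay 7–21 days in controlled conditions before a visual 0–100 score is given.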

[3] = 16 g ai/ha, scale 0 (no effect) to 100 (complete control)
[4] = 31 g ai/ha, scale 0 to 100 (0 no effect, 100 complete control)
[5] = 62 g ai/ha, scale 0 to 100 (0 no effect, 100 complete control)
[6] = 125 g ai/ha, scale 0 to 100 (0 no effect, 100 complete control)

FCc1cccc(Oc2ncc(Cl)cn2)c1-n1cc(I)cn1 [Compound 245]
Plant response rating, Bluegrass (bluegrass; [3]): 0
Plant response rating, Bluegrass (bluegrass; 31 g ai/ha, scale 0-100): 0
Plant response rating, Bluegrass (bluegrass; 62 g ai/ha, scale 0-100): 0
Plant response rating, Bluegrass (bluegrass; 125 g ai/ha, scale 0-100): 20
Plant response rating, Russian Thistle (Russian thistle [1]; 16 g ai/ha, scale 0-100): 55
Plant response rating, Russian Thistle (Russian thistle [1]; [4]): 75
Plant response rating, Russian Thistle (Russian thistle [1]; [5]): 70
Plant response rating, Russian Thistle (Russian thistle [1]; [6]): 80
Plant response rating, Pigweed (pigweed; 16 g ai/ha, scale 0-100): 95
Plant response rating, Pigweed (pigweed; [4]): 95
Plant response rating, Pigweed (pigweed; [5]): 100
Plant response rating, Pigweed (pigweed; [6]): 100
Plant response rating, Russian Thistle (Russian thistle [2]; [3]): 5
Plant response rating, Russian Thistle (Russian thistle [2]; 31 g ai/ha, scale 0 (no effect) to 100 (complete control)): 10
Plant response rating, Russian Thistle (Russian thistle [2]; 125 g ai/ha, scale 0-100): 70
